Data: patent US12139488B2, “Pyrido[3,2-d]pyrimidine compounds uses thereof for treating a proliferative disease” (Universite de Montreal, priority 2021, dated 2024)
Like-named read-outs stand apart in the source and are kept apart here.

Legend:
ARAF = ARAF (Homo sapiens (Human), UniProt P10398); assay: ARAF kinase activity assay (AlphaLISA p-MEK 1/2 detection); type: biochemical
Experimental: Compound preparation: solid samples of each substances in 1 dram vials were suspended in DMSO (Fisher Scientific) at a stock concentration of 20 mM. Stocks were kept at −20° C. and protected from light. If solubility of the compound at 20 mM appeared to be an issue, the initial concentration of the DMSO stock was changed to 10 mM or 5 mM.
In vitro enzymatic reactions were used for evaluating compounds intrinsic activity against BRAF, CRAF and ARAF. For BRAF and CRAF, 0.375 nM of purified GST-tagged kinases (cat #B4062-10 UG and cat #R1656-10 UG respectively from Millipore Sigma) were incubated with 75 nM of kinase-dead MEK1 substrate (cat #40075; BPS Bioscience) in the presence of 10 μM of Ultrapure ATP (cat #V9102; Promega; part V915A) with and without the test compound in a buffer containing 50 mM HEPES pH 7.5, 10 mM MgCl2, 1 mM EDTA, 0.01% Brij-35 and 2 mM DTT. Separate reactions were performed with the MEK1 substrate and ATP as a blank control. ARAF, kinase reactions were rigorously the same with the exception that kinase concentration was raised to 3.75 nM (cat #1768-0000-1; Reaction Biology).
For compound treatment, 5 μL/well of test substance solution are placed in a 384-well proxyplate (Perkin Elmer) and mixed with 2× concentrated kinase reactions. The dilution series is selected so that nine concentrations cover a range from 100 nM to 0.01 nM. […] The final concentration of DMSO in the assay is set at 0.05%.
ARAF kinase reactions were carried out for a total of 2 hours at 30° C. and then stopped by addition of EDTA at a final concentration of 40 mM. Reactions were then detected using the AlphaLISA® SureFire® Ultra™ p-MEK 1/2 (Ser218/222) (PerkinElmer) kit. Reactions were performed with 5 μL of kinase reaction according to the manufacturer's specifications in 384-well proxyplates (Perkin Elmer) followed by overnight incubation of the AlphaLISA® reactions at room temperature in a humidified chamber. After completion of the detection reactions, the signals were recorded on a Synergy Neo2 plate reader (Biotek) equipped with AlphaLISA® filters. The effect of each compound dilution on the pMEK signal generated by ARAF reactions was expressed in % inhibition and calculated as follows. An internal 100% inhibition control (average of luminescence in kinase reactions comprising kinase dead MEK1 substrate alone) was included in each plate to measure of pMEK background and was subtracted from each data point. The average of DMSO (vehicle) controls (set as 0% inhibition) was also established and used to calculate % inhibition: % inhibition=100*(1−((pMEK signalcompound)/(pMEK signalDMSO)))
IC50 values were obtained by plotting the kinase inhibition values and fitting the dose-activity curves using a log(agonist) versus response-variable slope (four parameters) function using either GraphPadPrism (V7.0) or Dotmatics Screening Ultra platform. Standards included in the ARAF kinase assay were Belvarafenib (MedChem Express cat #HY-109080; CAS #1446113-23-0), LXH254 (MedChem Express cat #HY-112089; CAS #1800398-38-2) and BGB283 (cat #HY-18957; CAS #1446090-79-4).

BRAF = BRAF (Homo sapiens (Human), UniProt P15056); assay: BRAF kinase activity assay (ADP-Glo); type: biochemical; conditions: read-out: Kinase IC50 (nM) BRAF
Outline: (§1)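 ADP-Glo luminescence assay of BRAF and CRAF kinase reactions with MEK1 substrate and ATP. Reactions ran 2 h at 30 °C with compound over nine concentrations from 100 nM to 0.01 nM, at 0.05% DMSO final. IC50 came from four-parameter variable-slope fits of % inhibition.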

CRAF = CRAF (Homo sapiens, UniProt P04049); assay: CRAF kinase activity assay (ADP-Glo); type: biochemical; conditions: read-out: Kinase IC50 (nM) CRAF
Outline: as §1

[1] = test system: pERK in HCT-116 cells (KRAS G13D); assay: Phospho-ERK inhibition (AlphaLISA SureFire Ultra p-ERK 1/2), HCT116; type: cell-based, human
Outline: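 pERK1/2 (Thr202/Tyr204) AlphaLISA, 1 h cpd, 10 conc. 10 μM→0.33 nM, 0.5% DMSO, RPMI-1640 + 5% FBS. Trametinib = 100%, DMSO = 0%. IC50, 4-param fit.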

[2] = test system: pERK in SW480 cells (KRAS G12D); assay: Phospho-ERK inhibition (AlphaLISA), SW480; type: cell-based, human
Experimental: All cancer cell lines (A375, A101D, A2058, RKO, HT29 SK-MEL 30, IPC298, HepG2, HCT-116, Lovo, SWV620, SW480, NCI-H358, NCI-H2122, Calu-6, NCIH2087, NCIH1755, NCIH1666 and Mewo) were obtained from ATCC and cultured in RPMI-1640 medium (Gibco) supplemented with 5% heat inactivated fetal bovine serum (FBS, Wisent) at 37° C. under 5% CO2. Cells were maintained in T175 flasks (Greiner). They were passaged by removing the culture medium, washing once in 10 mL of room temperature Phosphate Buffered Saline (PBS; Wisent) and incubating at 37° C. with 2 mL of 0.05% Trypsin (Thermo-Fisher). Trypsin was then inactivated by adding complete growth medium and the cells were then replated in a T175 culture dish at the appropriate dilution. All cell lines were routinely tested for mycoplasma contamination. Tissue type and mutational status of each cell line can be found in Table B.
AlphaLISA® SureFire® Ultra™ p-ERK 1/2 (Thr202/Tyr204) analysis was conducted on cells plated in 100 μL of complete RPMI-1640 growth medium in 96-well flat-bottomed transparent dishes (Costar) at a density indicated in Table C. Cells were maintained overnight at 37° C. under 5% CO2 before treatment with compounds' dilution series for one hour. The cell density in cells/cm^2 corresponds to cell number divided by the area of one well of a 96-well plate ([…]).
In a dilution series 100 μL/well of test substance dilution prepared in complete RPMI-1640 growth media was added to the cells. The dilution series is selected so that ten concentrations cover a range from 10 μM to 0.33 nM. If necessary the initial concentration of 10 μM is increased to 100 μM or lowered to 1 μM (as in the case of A375 and H1666 cells, which are generally more sensitive to the compounds) and further dilution is carried out accordingly. The final concentration of DMSO in the assay is set at 0.5%.
After treatment, media was removed and cells were lysed in 50 μL of 1× AlphaScreen Ultra Lysis Buffer (Perkin Elmer). The AlphaLISA® SureFire® Ultra™ p-ERK 1/2 (Thr202/Tyr2O4) (PerkinElmer) reactions were performed with 5 μL of cell lysate according to the manufacturer's specifications in 384-well proxyplates (Perkin Elmer) followed by overnight incubation of the reactions at room temperature in a humidified chamber. After completion of the reactions, the signals were recorded on an EnVision plate reader (Perkin Elmer) using built in AlphaLISA® settings.
The effect of each compound dilution on the pERK signal was expressed in % inhibition and calculated as follows. An internal 100% inhibition control ([…] trametinib, cat #HY-10999; MedChem Express; CAS #871700-17-3) was included in each plate and used as a measure of pERK background. First, the value obtained for trametinib was subtracted from each data point. The average of DMSO (vehicle) controls (set as 0% inhibition) was established and used to calculate % inhibition: % inhibition=100*(1-((pERK signalcompound)/(pERK signalDMSO)))
The ability of each compound to inhibit pERK signal was expressed as an IC50 value obtained by plotting the inhibition values for each data point of a dilution series and fitting the obtained curves using a log(agonist) versus response-variable slope (four parameters) function using GraphPadPrism (V7.0) or Dotmatics Screening Ultra platform.
When present, paradoxical pERK induction is inferred from the negative % inhibition values observed in the pERK IC50 curves of a compound.

[3] = HCT116 cells, class symbol before the bracket
[4] = SW480 cells, class symbol before the bracket
[5] = lowest % inhibition value of the IC50 curve, HCT116
[6] = lowest % inhibition value of the IC50 curve, SW480

Sequence of ARAF (P10398 whole entry): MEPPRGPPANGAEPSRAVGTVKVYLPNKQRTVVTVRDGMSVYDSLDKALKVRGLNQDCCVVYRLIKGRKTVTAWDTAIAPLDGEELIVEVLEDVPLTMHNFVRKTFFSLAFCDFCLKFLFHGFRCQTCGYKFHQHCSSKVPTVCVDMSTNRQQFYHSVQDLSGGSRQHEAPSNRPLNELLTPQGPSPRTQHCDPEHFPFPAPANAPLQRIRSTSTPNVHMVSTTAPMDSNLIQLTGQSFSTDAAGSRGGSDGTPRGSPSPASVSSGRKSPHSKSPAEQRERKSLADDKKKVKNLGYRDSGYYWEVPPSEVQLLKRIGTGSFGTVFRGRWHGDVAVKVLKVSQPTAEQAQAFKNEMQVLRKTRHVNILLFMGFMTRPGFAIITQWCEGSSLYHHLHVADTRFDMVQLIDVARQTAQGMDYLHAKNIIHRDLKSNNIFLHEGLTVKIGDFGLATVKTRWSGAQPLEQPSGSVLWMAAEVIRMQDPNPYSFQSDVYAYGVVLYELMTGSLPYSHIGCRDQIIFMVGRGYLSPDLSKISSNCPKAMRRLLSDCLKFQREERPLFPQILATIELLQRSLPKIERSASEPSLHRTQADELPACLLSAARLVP
Sequence of CRAF (P04049 whole entry, looked up): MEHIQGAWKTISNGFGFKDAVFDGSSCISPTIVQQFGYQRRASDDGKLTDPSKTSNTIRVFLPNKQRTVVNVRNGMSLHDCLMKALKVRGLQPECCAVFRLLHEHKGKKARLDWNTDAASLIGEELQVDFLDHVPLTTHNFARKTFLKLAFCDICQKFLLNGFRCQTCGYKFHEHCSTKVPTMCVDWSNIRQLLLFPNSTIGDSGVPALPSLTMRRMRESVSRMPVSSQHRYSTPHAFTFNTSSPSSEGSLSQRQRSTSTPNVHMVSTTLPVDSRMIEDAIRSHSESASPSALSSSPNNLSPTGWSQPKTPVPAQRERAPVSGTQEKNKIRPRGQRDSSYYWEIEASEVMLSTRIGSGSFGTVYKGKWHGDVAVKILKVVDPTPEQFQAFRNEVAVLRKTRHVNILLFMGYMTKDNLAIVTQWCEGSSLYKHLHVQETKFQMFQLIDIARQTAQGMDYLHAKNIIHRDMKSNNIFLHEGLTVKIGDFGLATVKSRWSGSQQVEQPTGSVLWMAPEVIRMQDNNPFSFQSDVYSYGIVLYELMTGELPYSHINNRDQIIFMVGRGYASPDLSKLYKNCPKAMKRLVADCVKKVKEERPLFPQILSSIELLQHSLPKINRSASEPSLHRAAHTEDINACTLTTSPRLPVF
Sequence of BRAF (P15056 whole entry): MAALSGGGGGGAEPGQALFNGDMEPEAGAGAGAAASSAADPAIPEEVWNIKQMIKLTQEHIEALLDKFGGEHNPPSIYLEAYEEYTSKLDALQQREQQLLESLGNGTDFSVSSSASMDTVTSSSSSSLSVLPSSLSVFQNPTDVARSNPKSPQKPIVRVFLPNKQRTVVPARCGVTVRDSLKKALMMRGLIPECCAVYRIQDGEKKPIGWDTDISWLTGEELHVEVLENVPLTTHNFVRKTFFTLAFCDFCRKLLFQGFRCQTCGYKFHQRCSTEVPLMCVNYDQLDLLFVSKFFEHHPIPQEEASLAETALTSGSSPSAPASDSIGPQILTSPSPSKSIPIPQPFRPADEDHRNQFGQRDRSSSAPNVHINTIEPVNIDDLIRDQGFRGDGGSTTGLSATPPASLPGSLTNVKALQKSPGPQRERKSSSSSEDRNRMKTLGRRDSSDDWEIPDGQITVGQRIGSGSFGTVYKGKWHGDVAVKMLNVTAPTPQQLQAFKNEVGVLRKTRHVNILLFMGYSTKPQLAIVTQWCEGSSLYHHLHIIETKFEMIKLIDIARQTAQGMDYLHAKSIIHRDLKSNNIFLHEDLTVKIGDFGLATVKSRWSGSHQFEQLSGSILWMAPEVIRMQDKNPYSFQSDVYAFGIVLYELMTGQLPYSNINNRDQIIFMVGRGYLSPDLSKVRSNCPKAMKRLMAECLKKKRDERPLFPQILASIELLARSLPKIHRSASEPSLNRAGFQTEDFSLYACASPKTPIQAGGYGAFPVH

| IC50 (BRAF) [nM] | IC50 (CRAF) [nM] | IC50 [1, 3] [µM] | IC50 [2, 4] [µM] | SMILES | HCT116 pERK Ymin % ([1]; HCT116 cells, Ymin in brackets) [%] | SW480 pERK Ymin % ([2]; SW480 cells, Ymin in brackets) [%] | also measured |
| --- | --- | --- | --- | --- | --- | --- | --- |
| – | – | – | – | O=C1CCc2c(Oc3ccc4c(c3)[C@@H]3[C@H](O4)[C@H]3c3nc4ccc(C(F)(F)F)cc4[nH]3)ccnc2N1 [BGB283, reference compound] | – | – | IC50 (ARAF): > 10 nM |
| > 10 | > 50 | 1 to 10 | 1 to 10 | COc1ccc(S(=O)(=O)Nc2ccc(F)c(Nc3ncnc4ccc(-c5cnn6ccccc56)nc34)c2F)c(C)c1 [Ex 73] | 5 | −1 | – |
| 1 to 10 | 10 to 50 | < 0.5 | < 0.5 | COc1ccc(S(=O)(=O)Nc2ccc(F)c(Nc3ncnc4ccc(-n5cnc6c(N)cccc65)nc34)c2F)c(C)c1 [Ex 76] | 8 | 6 | – |
| 1 to 10 | > 50 | 1 to 10 | 1 to 10 | Nc1ncnc2c1ncn2-c1ccc2ncnc(Nc3c(F)ccc(NS(=O)(=O)c4ccccc4Cl)c3F)c2n1 [Ex 89] | 8 | −3 | – |
| > 10 | > 50 | – | – | CCc1ccc(S(=O)(=O)Nc2ccc(F)c(Nc3ncnc4ccc(-n5cnc6ccccc65)nc34)c2F)cc1 [Example 10] | – | – | IC50 ([1]; HCT116 cells, 1 h treatment): 10 to 30 µM; HCT116 pERK Ymin % [1, 5]: 1%; IC50 ([2]; SW480 cells, 1 h treatment): 1 to 10 µM; SW480 pERK Ymin % [2, 6]: 12% |
| > 10 | 10 to 50 | 0.5 to 1 | 0.5 to 1 | COc1ccc(S(=O)(=O)Nc2ccc(F)c(Nc3ncnc4ccc(-n5cnc6c(C(N)=O)cccc65)nc34)c2F)c(C)c1 [Example 75] | 0 | 1 | – |
| 1 to 10 | < 10 | < 0.5 | < 0.5 | Nc1cccc2c1ncn2-c1ccc2ncnc(Nc3c(F)ccc(NS(=O)(=O)c4ccccc4Cl)c3F)c2n1 [Example 83] | −7.3 | 2.5 | – |
| < 1 | < 10 | < 0.5 | < 0.5 | Nc1cccc2c1nnn2-c1ccc2ncnc(Nc3c(F)ccc(NS(=O)(=O)c4cccc(Cl)c4Cl)c3F)c2n1 [Example 100] | −16 | 16 | – |
| – | – | – | – | Cc1c(Cl)cccc1S(=O)(=O)Nc1cccc(Nc2ncnc3ccc(-n4cnc5ccccc54)nc23)c1F [Example 240] | – | – | IC50 (BRAF; Table 5): 1 to 10 nM; IC50 (CRAF; Table 5): 10 to 50 nM; IC50 ([1]; HCT116 cells, Table 5): < 0.5 µM; HCT116 pERK Ymin % ([1]; lowest value of the curve, HCT116, Table 5): 7%; IC50 ([2]; SW480 cells, Table 5): < 0.5 µM; SW480 pERK Ymin % ([2]; lowest value of the curve, SW480, Table 5): (−8) % |
| – | – | – | – | Cc1nc(N)ccc1S(=O)(=O)Nc1ccc(F)c(Nc2ncnc3ccc(-n4cnc5c(N)cccc54)nc23)c1F [Example 353] | – | – | IC50 (ARAF): 1 to 10 nM; IC50 ([1]; HCT116 cells, class symbol): 1 to 10 µM |
| – | – | – | – | Cc1ccc(NC(=O)c2ccnc(C(F)(F)F)c2)cc1-c1cc(OCCO)nc(N2CCOCC2)c1 [LXH254, reference compound] | – | – | IC50 (ARAF): > 10 nM |

| SMILES | IC50 (BRAF) [nM] | IC50 (CRAF) [nM] | IC50 [1, 3] [µM] | IC50 [2, 4] [µM] | HCT116 pERK Ymin % ([1]; HCT116 cells, Ymin in brackets) [%] | SW480 pERK Ymin % ([2]; SW480 cells, Ymin in brackets) [%] | also measured |
| --- | --- | --- | --- | --- | --- | --- | --- |
| COc1ccc(S(=O)(=O)Nc2ccc(F)c(Nc3ncnc4ccc(-n5cnc6ccccc65)nc34)c2F)cc1 [Example 1] | 1 to 10 | 10 to 50 | – | – | – | – | IC50 ([1]; HCT116 cells, 1 h treatment): 1 to 10 µM; HCT116 pERK Ymin % [1, 5]: 8%; IC50 ([2]; SW480 cells, 1 h treatment): 1 to 10 µM; SW480 pERK Ymin % [2, 6]: 4% |
| O=S(=O)(Nc1ccc(F)c(Nc2ncnc3ccc(-n4cnc5ccccc54)nc23)c1F)c1ccccc1Cl [Example 8] | 1 to 10 | < 10 | – | – | – | – | IC50 ([1]; HCT116 cells, 1 h treatment): 0.5 to 1 µM; HCT116 pERK Ymin % [1, 5]: −2.5%; IC50 ([2]; SW480 cells, 1 h treatment): 0.5 to 1 µM; SW480 pERK Ymin % [2, 6]: 4.8% |
| CN(C)C(=O)c1cn(-c2ccc3ncnc(Nc4c(F)ccc(NS(=O)(=O)c5ccccc5Cl)c4F)c3n2)c2cccc(N)c12 [Example 96] | < 1 | > 50 | < 0.5 | < 0.5 | 12 | 12 | – |
